Several values for one entry are separate records, joined by “and”; a condition that tells them apart may be missing. Equal values may be shown once. Where a SMILES comes first, the peptide text is derived from it.
What was measured:
Assay type in all cases: cell-based
[1] = system: HT-29 (Colon carcinoma) cells; experiment: Screening of cytotoxic activity of peptides by MTT assay on HT-29 cells; conditions: for % inhibition (peptide screening): HT-29 cancerous cells, MTT, Fig. 1
Procedure: Different concentrations of the peptides (1 μL, 3 μL, 5 L, 10 μL, 20 μL) were used to treat the cancerous and normal cells consecutively (Inkielewicz-Stepniak et al. [2014]). The percentage inhibition was calculated.

[2] = system: NIH3T3 (Mouse embryo fibroblast) cells; experiment: Cytotoxicity on normal NIH3T3 cells (MTT assay)
Procedure: Above-mentioned peptides (P1, P2, P3, P4, and P5) obtained from other sources were screened for cytotoxicity by MTT assay on NIH3T3 (Mouse embryo fibroblast) cells (normal) and HT-29 (Colon carcinoma) cells (cancerous) by MTT assay. Different concentrations of the peptides (1 μL, 3 μL, […], 10 μL, 20 μL) were used to treat the cancerous and normal cells consecutively (Inkielewicz-Stepniak et al. [2014]). The percentage inhibition was calculated.

[3] = system: HT-29 (Colon carcinoma) cells; experiment: MTT assay of nanoparticles, P1 and conjugates on HT-29; conditions: 24 h exposure, 5000 cells/well, 570 nm, triplicates
Procedure: Cell lines were acquired from NCCS—National Centre for Cell Science, Pune, India. The HT-29 (Colon carcinoma) and MDA MB-231 (Breast cancer) cells were plated into 25-mm^2 T-flasks after thawing them at 37 °C in a water bath for few minutes. The thawed cells were transferred in a centrifuge tube and centrifuged for 3 min at 2000 rpm/min. The cells were, thus, collected discarding the supernatant and mixed well in Dulbecco’s modified Eagle’s medium (DMEM) solution with 12% fetal bovine serum, and antibiotics (streptopenicillin and amphotericin B solution, Sigma). Later, they were plated in 25 mm^2 in the same DMEM solution, individually. The T-flasks containing the cells were incubated for 24 h in humidified environment with 5% CO2. These cells after 24 h were washed with phosphate buffer saline (PBS). The medium was regularly changed for the cells to reach 50% confluence (Hajiaghaalipour et al [2015]). To check the viability of cells, MTT assay was carried out and 96-well plates were used to seed the cell lines of interest at 5000 cells/well and incubated overnight at 37 °C in an incubator with 5% CO2. After incubation, the cells were treated with different concentrations (1, 5, 10 μg/mL) of P1, AgNPs, AuNPs, P1–AgNP and P1–AuNP conjugates. The plates along with the treated cells were again incubated for 24 h at the same condition. […] The measurement of MTT assay was analyzed with Elisa Reader (Thermo Scientific, Multiskan Spectrum) at 570 nm (Inkielewicz-Stepniak et al [2014]). Percentage inhibition of cells was calculated according to the following equation: Cytotoxicity(%)=(experimentalabsorbance570nmofexposedcells/absorbance570nmofunexposedcells)×100.
All experiments were done in triplicates and the results were represented as mean ± SEM. The experimental data were read by two-way analysis of variance (ANNOVA). […] The IC-50 value was calculated using Microsoft Excel 2007 software (logarithmic transformation of X values and nonlinear regression sigmoidal dose–response analysis with variable slope—with bottom and top constraints set at 0 and 100, resp.).

[4] = system: MDA MB-231 (Breast cancer) cells; experiment: MTT assay of nanoparticles, P1 and conjugates on MDA MB-231; conditions: for % inhibition: MTT, 24 h exposure, 5000 cells/well, 570 nm, triplicates
Procedure: Cell lines were acquired from NCCS—National Centre for Cell Science, Pune, India. The HT-29 (Colon carcinoma) and MDA MB-231 (Breast cancer) cells were plated into 25-mm^2 T-flasks after thawing them at 37 °C in a water bath for few minutes. The thawed cells were transferred in a centrifuge tube and centrifuged for 3 min at 2000 rpm/min. The cells were, thus, collected discarding the supernatant and mixed well in Dulbecco’s modified Eagle’s medium (DMEM) solution with 12% fetal bovine serum, and antibiotics (streptopenicillin and amphotericin B solution, Sigma). Later, they were plated in 25 mm^2 in the same DMEM solution, individually. The T-flasks containing the cells were incubated for 24 h in humidified environment with 5% CO2. These cells after 24 h were washed with phosphate buffer saline (PBS). The medium was regularly changed for the cells to reach 50% confluence (Hajiaghaalipour et al [2015]). To check the viability of cells, MTT assay was carried out and 96-well plates were used to seed the cell lines of interest at 5000 cells/well and incubated overnight at 37 °C in an incubator with 5% CO2. After incubation, the cells were treated with different concentrations (1, 5, 10 μg/mL) of P1, AgNPs, AuNPs, P1–AgNP and P1–AuNP conjugates. The plates along with the treated cells were again incubated for 24 h at the same condition. The stored stock of MTT solution was added to the control and treated cell line samples, and again incubated at 37 °C for 2–3 h. After incubation, the media were carefully removed from the wells and mixed with solubilizing buffer. A purple color solution was visible at this stage. The control solution (without incorporation of nanoparticles/pure incubated cells) and treated samples were again incubated for an hour at 37 °C to ensure that the formazan precipitate was dissolved. The measurement of MTT assay was analyzed with Elisa Reader (Thermo Scientific, Multiskan Spectrum) at 570 nm (Inkielewicz-Stepniak et al [2014]). Percentage inhibition of cells was calculated according to the following equation: Cytotoxicity(%)=(experimentalabsorbance570nmofexposedcells/absorbance570nmofunexposedcells)×100.
All experiments were done in triplicates and the results were represented as mean ± SEM. The experimental data were read by two-way analysis of variance (ANNOVA). Differences were considered significant at p < 0.05. The IC-50 value was calculated using Microsoft Excel 2007 software (logarithmic transformation of X values and nonlinear regression sigmoidal dose–response analysis with variable slope—with bottom and top constraints set at 0 and 100, resp.).

[5] = system: HT-29 cells; experiment: PI/AO staining for dead/live cells, HT-29; conditions: HT-29, 1 µg/mL, 24 h, Figs. 6, 8
Procedure: (§1) HT-29 and MDA MB-231 cells were plated at a density of 1 × 10^6 cells/mL in 6-well tissue culture plates. They were treated with 1 µg/mL each of AgNP, AuNP, P1, P1–AgNP and P1–AuNP conjugated samples and were incubated in at 37 °C in 5% CO2 for 24 h. The cells were then harvested and washed twice using PBS after centrifugation at 2000 rpm for 5 min. An equal volume (10 µg/mL) of fluorescent dyes, propidium iodide (PI)/acridine orange (AO) was added to the cellular pellet. These freshly stained cells were observed under an inverted fluorescent microscope within 30 min (Banerjee and Ravishankar [2017]).
(§2) The nucleic acid-binding dyes propidium iodide (PI) and acridine orange (AO) help us to detect the dead cells and live cells under the microscope. AO permeates both dead and live cells; thus, it stains all nucleated cells to generate green fluorescence, whereas PI identifies the dead cells only and fluoresce red. The treated cancer cells were both stained with PI and AO equally, and were observed under fluorescence microscope. The results are obtained on swapping of the images to have an apparent understanding of the drug effects (Hajrezaie et al [2015]; Hajiaghaalipour et al [2015]).

[6] = system: MDA MB-231 cells; experiment: PI/AO staining for dead/live cells, MDA MB-231; conditions: MDA MB-231, 1 µg/mL, 24 h, Figs. 7, 9
Procedure: as §1, §2

COC(=O)[C@H](CC(C)C)NC(=O)[C@H]1CCCN1C(=O)[C@H](CC(C)C)NC(=O)OC(C)(C)C [Peptide P1, Boc-L-^DP-L-OMe] (HELM PEPTIDE1{[CC(C)(C)OC(=O)[*:2]].L.[dP].L.[CO[*:1]]}$$$$V2.0)
IC50 rank among the five peptides ([1]; HT-29, MTT, Fig. 1 legend): best IC50 value | % inhibition (peptide screening) ([1]; lowest concentration 1 µg/mL): 23.22% | change of NIH3T3 cells due to treatment [2]: do not show much change | % inhibition ([3]; HT 29, 1 µg/mL): ~ 19% and 19.69% | % inhibition ([3]; HT 29, 5 µg/mL): 22.05% | % inhibition ([3]; HT 29, 10 µg/mL): 27.72% | % inhibition ([4]; MDA MB 231, 1 µg/mL): 29.98% | % inhibition ([4]; MDA MB 231, 5 µg/mL): 37.11% | % inhibition ([4]; MDA MB 231, 10 µg/mL): 60.69% | inhibition of up to (concentration not given) ([4]; MDA MB-231, MTT, Fig. 5b/5d, concentration not given): around 29% | PI/AO fluorescent staining, observed state of the cells [5]: a number of apoptotic cells as well and very few dead cells | PI/AO fluorescent staining, observed state of the cells [6]: a number of apoptotic cells as well and very few dead cells

(U^BF)4-OMe [Peptide P2]
% inhibition (peptide screening) ([1]; lowest concentration 1 µg/mL): 15.93%

Boc-P-A-OH [Peptide P3]
% inhibition (peptide screening) ([1]; lowest concentration 1 µg/mL): 9.12%

Boc-P-U-OH [Peptide P4]
% inhibition (peptide screening) ([1]; 5 µg/mL): around 20%

Boc-βGly-βGly-OMe [Peptide P5]
% inhibition (peptide screening) ([1]; 5 µg/mL): around 20%

Source: publication PMC6424996, “Effect of peptide-conjugated nanoparticles on cell lines” (Progress in Biomaterials, 2019)
